How the values were obtained:
[1] = tested on: LPS (TLR4) stimulated Mo-Derived DCs; assay: Cytokine secretion ELISA, LPS (TLR4)-stimulated monocyte-derived dendritic cells; type: cell-based, human; details: 1 hour pretreatment, 24 hours 100 ng/ml LPS
Method: To generate monocyte-derived DC (Mo-DCs), CD14+ monocytes were counted, washed and seeded (10^6/ml) in medium containing RPMI-1640, L-glutamine, β-mercaptoethanol, 10% fetal calf serum (FCS), sodium pyruvate, non-essential amino acids, 0.01 M HEPES, antibiotics (penicillin, streptomycin), 50 ng/ml human granulocyte-macrophage colony-stimulating factor (GMCSF) and 20 ng/ml human IL-4 (both from PeproTech Asia, Israel). Medium was replaced every 2-3 days. Mo-DCs were collected 5-6 days post-culture, counted and seeded (10^6/ml). Cells were pretreated for 1 hour with VB-201 or VB-703, followed by 24 hours activation with 100 ng/ml LPS from Escherichia coli strain 055:B5 (Sigma, Israel) to induce cytokine production. IL-6 concentration (FIG. 14) and IL-12/23p40 (FIG. 15) concentration in supernatant were measured by ELISA (R&D systems, Cat. No. DY1240 and Cat. No. DY206, […]). Cells activated with solvent (0.5% ethanol in PBS) were used as a control.

[2] = tested on: PGN (TLR2)-induced signaling in human monocytes (THP-1 cell line); assay: PGN (TLR2)-induced signaling, western blot; type: cell-based; details: 20 min pretreatment, 20 μg/ml PGN for 15 minutes
Method: The monocytic THP-1 cell line was purchased from the American Type Tissue Culture Collection (ATCC Cat. No. TIB-202). Cells (10^6/ml) were pretreated for 20 min with VB-201 or VB-701 at the doses indicated in FIG. 3, or with solvent, followed by activation with 20 μg/ml peptidoglycan (PGN) (InvivoGen, San Diego, Calif.) for 15 minutes, or were untreated (“Unt”). Cells were washed and resuspended in lysis buffer containing 1:100 dithiothreitol (DTT), phosphatase and protease inhibitors (Thermo Scientific). Samples were loaded onto a precast Criterion TGX gel (Bio-Rad, Hemel Hempstead, UK) and transferred onto nitrocellulose membrane. Blots were blocked with 5% milk or BSA in Tris buffered saline and Tween 20 (TBST) for 1 h, followed by incubation with primary and secondary antibodies. Membranes were developed using an ECL kit (Thermo Scientific). The following antibodies were used for immunoblotting:
(§1) Primary antibodies: p-p38 (Cat. No. 4511; 1:1000) and p-IKK (Cat. No. 2697; 1:1000) were from Cell Signaling Technology (Danvers, Mass., USA). p-ERK1/2 (Cat. No. M8159; 1:10000) was purchased from Sigma (Israel). αTubulin served as a loading control.
(§2) Secondary antibodies: HRP donkey anti-rabbit (1:5000) and HRP goat anti-mouse (1:3000) were from Jackson ImmunoResearch (West Grove, Pa., USA). HRP donkey anti-goat (1:5000) was from Santa Cruz Biotechnology.

[3] = tested on: LPS (TLR4)-induced signaling in human monocytes (primary CD14+); assay: LPS (TLR4)-induced signaling, western blot; type: cell-based; details: for formation of p-IKK, p-ERK and p-p38 induced by LPS: 20 min pretreatment, 15 min activation with 100 ng/ml LPS
Method: Venous blood samples were obtained from healthy male donors in compliance with the Institutional Review Board at the Sheba Medical Center, Ramat Gan, Israel. PBMCs were isolated on Ficoll-Paque PLUS (GE Healthcare, Uppsala, Sweden) using 50 ml Leucosep tubes (Greiner Bio-One, Frickenhausen, Germany). Cells were washed in PBS (Kibbutz Beit Haemek, Israel) and incubated at 4° C. for 15 minutes in a buffer containing PBS and 0.5% bovine serum albumin (BSA) with human CD14 microbeads (Miltenyi Biotec, Bergisch Gladbach, Germany).
(§3) Cells (10^6/ml) were pretreated for 20 min with VB-201 (1-hexadecyl-2-(4′-carboxy)butyl-glycero-3-phosphocholine or 1-hexadecyl-2-(4′-carboxybutyl)-glycerol-3-phosphocholine) or VB-701 at the doses indicated in FIG. 2, or with solvent (Sol), followed by 15 min activation with 100 ng/ml lipopolysaccharide (LPS) or were untreated (Unt). Cells were washed and resuspended in lysis buffer containing 1:100 dithiothreitol (DTT), phosphatase and protease inhibitors (Thermo Scientific). Samples were loaded onto a precast Criterion TGX gel (Bio-Rad, Hemel Hempstead, UK) and transferred onto nitrocellulose membrane. Blots were blocked with 5% milk or BSA in Tris buffered saline and Tween 20 (TBST) for 1 h, followed by incubation with primary and secondary antibodies. Membranes were developed using an ECL kit (Thermo Scientific). The following antibodies were used for immunoblotting:
Primary antibodies: p-p38 (Cat. No. 4511; 1:1000) and p-IKK (Cat. No. 2697; 1:1000) were from Cell Signaling Technology (Danvers, Mass., USA). p-ERK1/2 (Cat. No. M8159; 1:10000) was purchased from Sigma (Israel). αTubulin (Tub) served as a loading control.
as §2
as §3, with “VB-201” for “VB-201 (1-hexadecyl-2-(4′-carboxy)butyl-glycero-3-phosphocholine”, “VB-703” for “1-hexadecyl-2-(4′-carboxybutyl)-glycerol-3-phosphocholine) or VB-701 at the doses indicated in FIG. 2, or with solvent (Sol),”, “LPS.” for “lipopolysaccharide (LPS) or were untreated (Unt).”
as §1, with “Heat shock protein (HSP) 90 (Cat. No. 13119; 1:500) was from Santa Cruz Biotechnology (Santa Cruz, Calif., USA).” for “αTubulin served as a loading control.”

[4] = biological target: T1, TLR4 complex (Homo sapiens, UniProt O00206+Q9Y6Y9); assay: LPS binding inhibition assay (biotin-LPS, FACS)
T1 construct: endogenous in cells; probably the human primary monocytes of b454
T1 sequence (O00206 24-839): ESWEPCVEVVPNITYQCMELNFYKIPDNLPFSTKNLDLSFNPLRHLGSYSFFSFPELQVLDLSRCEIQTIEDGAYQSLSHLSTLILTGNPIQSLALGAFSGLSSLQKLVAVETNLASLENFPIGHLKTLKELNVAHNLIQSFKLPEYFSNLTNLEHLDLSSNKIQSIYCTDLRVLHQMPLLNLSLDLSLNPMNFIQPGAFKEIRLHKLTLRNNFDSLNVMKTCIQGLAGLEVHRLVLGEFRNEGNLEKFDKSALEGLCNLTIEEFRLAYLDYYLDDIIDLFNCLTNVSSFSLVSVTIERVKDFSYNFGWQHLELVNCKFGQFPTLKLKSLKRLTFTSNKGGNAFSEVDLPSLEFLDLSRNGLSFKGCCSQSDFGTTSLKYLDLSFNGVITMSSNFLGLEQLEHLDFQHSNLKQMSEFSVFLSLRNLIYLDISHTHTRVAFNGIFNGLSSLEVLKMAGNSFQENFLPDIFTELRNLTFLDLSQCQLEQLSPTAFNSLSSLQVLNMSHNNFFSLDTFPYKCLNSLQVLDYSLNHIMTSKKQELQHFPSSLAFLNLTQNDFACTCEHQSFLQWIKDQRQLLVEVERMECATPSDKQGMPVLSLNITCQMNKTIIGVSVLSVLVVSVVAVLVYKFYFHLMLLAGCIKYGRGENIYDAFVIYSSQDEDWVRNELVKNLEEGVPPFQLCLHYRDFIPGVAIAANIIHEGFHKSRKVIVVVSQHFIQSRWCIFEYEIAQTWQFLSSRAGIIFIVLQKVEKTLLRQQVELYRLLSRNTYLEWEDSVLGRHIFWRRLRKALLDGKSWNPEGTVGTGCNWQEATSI
T1 sequence (Q9Y6Y9 17-160 limits assumed): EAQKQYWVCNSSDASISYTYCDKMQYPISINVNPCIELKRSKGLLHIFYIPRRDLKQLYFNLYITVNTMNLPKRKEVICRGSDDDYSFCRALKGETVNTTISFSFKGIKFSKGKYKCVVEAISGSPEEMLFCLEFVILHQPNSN
Method: To assess interference with lipopolysaccharide (LPS) binding, VB-201 or VB-703 were incubated for 20 min with cells (10^6/ml) after which 100 ng/ml of biotin-LPS (InvivoGen) was added for an additional 15 minutes, all at 4° C. Cells were washed, resuspended in FACS buffer and analyzed on a FACS-Calibur device.

SMILES	IL-6 secretion [1]	IL-12p40 secretion [1]	formation of p-IKK, p-ERK and p-p38 induced by PGN [2]	formation of p-IKK, p-ERK and p-p38 induced by LPS ([3]; western blot)	formation of p-ERK and p-AKT induced by LPS ([3]; western blot, LPS activation)	IC50 ([4]; biotin-LPS 100 ng/ml, 4° C., human primary monocytes) [µM]	efficacy in inhibiting TLR4-driven protein phosphorylation, fold higher than VB-201 ([3]; compared with VB-201) [fold]	LPS-biotin binding to human monocytes (primary CD14+) ([4]; biotin-LPS 100 ng/ml, FACS)	IC50 of LPS binding, fold lower than that of VB-201 ([4]; compared with VB-201) [fold]
CCCCCCCCCCCCCCCCOCC(COP(=O)([O-])OCC[N+](C)(C)C)OCCCCC(=O)O (stereo not shown) [VB-201, 1-hexadecyl-2-(4′-carboxy)butyl-glycero-3-phosphocholine, reference compound]	inhibit	inhibit	inhibit	inhibit	inhibit	~12			
CCCCCCCCCCC(CCCCCCCC)COC[C@H](COP(=O)([O-])OCC[n+]1ccccc1)OCCCCC(=O)O (stereo partly drawn) [VB-703, (R)-1-(2′-octyl)dodecyl-2-(4′-carboxy)butyl-sn-glycero-3-phosphoric acid pyridiniumethyl ester]	inhibit	inhibit	inhibit	inhibited			≥ 10	inhibit	> 10

Source: US10464957B2, “Oxidized lipids and methods of use thereof” (Vascular Biogenics Ltd., priority 2014, dated 2019)
